Data taken from PubChem BioAssay (NCI).
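A five-concentration, 48-hour dose response in 96-well plates underlies each endpoint, interpolated linearly between surrounding concentrations. TGI: total growth inhibition.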

Columns and labels:
Assay in all cases: NCI-60 cell line screen, 48 h
786-0 renal = system: 786-0 renal
A549 NSCLC = system: A549 NSCLC
ACHN renal = system: ACHN renal
BT-549 breast = system: BT-549 breast
CAKI-1 renal = system: CAKI-1 renal
CCRF-CEM leukemia = system: CCRF-CEM leukemia
COLO 205 colon = system: COLO 205 colon
DU-145 prostate = system: DU-145 prostate
EKVX NSCLC = system: EKVX NSCLC
HCC-2998 colon = system: HCC-2998 colon
HCT-116 colon = system: HCT-116 colon
HCT-15 colon = system: HCT-15 colon
HL-60(TB) leukemia = system: HL-60(TB) leukemia
HOP-62 NSCLC = system: HOP-62 NSCLC
HOP-92 NSCLC = system: HOP-92 NSCLC
HS 578T breast = system: HS 578T breast
HT29 colon = system: HT29 colon
IGROV1 ovarian = system: IGROV1 ovarian
K-562 leukemia = system: K-562 leukemia
KM12 colon = system: KM12 colon
LOX IMVI melanoma = system: LOX IMVI melanoma
M14 melanoma = system: M14 melanoma
MALME-3M melanoma = system: MALME-3M melanoma
MCF7 breast = system: MCF7 breast
MDA-MB-231 breast = system: MDA-MB-231 breast
MDA-MB-435 = system: MDA-MB-435
MDA-N = system: MDA-N
MOLT-4 leukemia = system: MOLT-4 leukemia
NCI-H226 lung = system: NCI-H226 lung
NCI-H460 lung = system: NCI-H460 lung
NCI-H522 lung = system: NCI-H522 lung
NCI/ADR-RES ovarian = system: NCI/ADR-RES ovarian
OVCAR-4 ovarian = system: OVCAR-4 ovarian
OVCAR-5 ovarian = system: OVCAR-5 ovarian
OVCAR-8 ovarian = system: OVCAR-8 ovarian
PC-3 prostate = system: PC-3 prostate
RPMI-8226 leukemia = system: RPMI-8226 leukemia
RXF 393 renal = system: RXF 393 renal
SF-268 CNS = system: SF-268 CNS
SF-295 CNS = system: SF-295 CNS
SF-539 CNS = system: SF-539 CNS
SK-MEL-2 melanoma = system: SK-MEL-2 melanoma
SK-MEL-28 melanoma = system: SK-MEL-28 melanoma
SK-MEL-5 melanoma = system: SK-MEL-5 melanoma
SK-OV-3 ovarian = system: SK-OV-3 ovarian
SN12C renal = system: SN12C renal
SNB-19 CNS = system: SNB-19 CNS
SNB-75 CNS = system: SNB-75 CNS
SR leukemia = system: SR leukemia
SW-620 colon = system: SW-620 colon
T-47D breast = system: T-47D breast
TK-10 renal = system: TK-10 renal
U251 CNS = system: U251 CNS
UACC-257 melanoma = system: UACC-257 melanoma
UACC-62 melanoma = system: UACC-62 melanoma
UO-31 renal = system: UO-31 renal
A498 renal = system: A498 renal
NCI-H23 lung = system: NCI-H23 lung
OVCAR-3 ovarian = system: OVCAR-3 ovarian

Structure (SMILES): CN(C)c1ccc(/C=C(\C#N)c2nc(-c3cc4ccccc4oc3=O)cs2)cc1
- TGI (786-0 renal): 21 µM
- TGI (A549 NSCLC): > 50 µM
- TGI (ACHN renal): > 50 µM
- TGI (BT-549 breast): 8.16 µM
- TGI (CAKI-1 renal): > 50 µM
- TGI (CCRF-CEM leukemia): > 50 µM
- TGI (COLO 205 colon): > 50 µM
- TGI (DU-145 prostate): > 50 µM
- TGI (EKVX NSCLC): > 50 µM
- TGI (HCC-2998 colon): > 50 µM
- TGI (HCT-116 colon): > 50 µM
- TGI (HCT-15 colon): > 50 µM
- TGI (HL-60(TB) leukemia): > 50 µM
- TGI (HOP-62 NSCLC): 15.6 µM
- TGI (HOP-92 NSCLC): 16.8 µM
- TGI (HS 578T breast): > 50 µM
- TGI (HT29 colon): > 50 µM
- TGI (IGROV1 ovarian): > 50 µM
- TGI (K-562 leukemia): > 50 µM
- TGI (KM12 colon): > 50 µM
- TGI (LOX IMVI melanoma): > 50 µM
- TGI (M14 melanoma): > 50 µM
- TGI (MALME-3M melanoma): > 50 µM
- TGI (MCF7 breast): > 50 µM
- TGI (MDA-MB-231 breast): 40.9 µM
- TGI (MDA-MB-435): > 50 µM
- TGI (MDA-N): > 50 µM
- TGI (MOLT-4 leukemia): > 50 µM
- TGI (NCI-H226 lung): > 50 µM
- TGI (NCI-H460 lung): > 50 µM
- TGI (NCI-H522 lung): 31.6 µM
- TGI (NCI/ADR-RES ovarian): > 50 µM
- TGI (OVCAR-4 ovarian): > 50 µM
- TGI (OVCAR-5 ovarian): > 50 µM
- TGI (OVCAR-8 ovarian): > 50 µM
- TGI (PC-3 prostate): > 50 µM
- TGI (RPMI-8226 leukemia): > 50 µM
- TGI (RXF 393 renal): > 50 µM
- TGI (SF-268 CNS): > 50 µM
- TGI (SF-295 CNS): 25.1 µM
- TGI (SF-539 CNS): 26.7 µM
- TGI (SK-MEL-2 melanoma): 38.6 µM
- TGI (SK-MEL-28 melanoma): > 50 µM
- TGI (SK-MEL-5 melanoma): > 50 µM
- TGI (SK-OV-3 ovarian): > 50 µM
- TGI (SN12C renal): > 50 µM
- TGI (SNB-19 CNS): > 50 µM
- TGI (SNB-75 CNS): 4.21 µM
- TGI (SR leukemia): > 50 µM
- TGI (SW-620 colon): > 50 µM
- TGI (T-47D breast): > 50 µM
- TGI (TK-10 renal): 21.8 µM
- TGI (U251 CNS): 44.5 µM
- TGI (UACC-257 melanoma): > 50 µM
- TGI (UACC-62 melanoma): 24.3 µM
- TGI (UO-31 renal): > 50 µM

Structure (SMILES): Cc1[nH]c(-c2ccccc2)c(O)c1C(=O)OC12CC3CC(CC(C3)C1)C2
- TGI (786-0 renal): 27 µM
- TGI (A498 renal): 35 µM
- TGI (A549 NSCLC): 25.7 µM
- TGI (ACHN renal): 29.7 µM
- TGI (BT-549 breast): 31.8 µM
- TGI (CAKI-1 renal): 35.4 µM
- TGI (CCRF-CEM leukemia): > 100 µM
- TGI (COLO 205 colon): 27 µM
- TGI (DU-145 prostate): 29.3 µM
- TGI (EKVX NSCLC): 27 µM
- TGI (HCT-116 colon): 30.4 µM
- TGI (HCT-15 colon): 27.4 µM
- TGI (HL-60(TB) leukemia): > 100 µM
- TGI (HOP-62 NSCLC): 28.1 µM
- TGI (HOP-92 NSCLC): 34.8 µM
- TGI (HS 578T breast): 25.9 µM
- TGI (HT29 colon): 17.2 µM
- TGI (IGROV1 ovarian): 27.4 µM
- TGI (K-562 leukemia): > 100 µM
- TGI (KM12 colon): 19.3 µM
- TGI (M14 melanoma): 24.9 µM
- TGI (MALME-3M melanoma): 28 µM
- TGI (MCF7 breast): 28 µM
- TGI (MDA-MB-231 breast): 33.1 µM
- TGI (MDA-MB-435): 28.6 µM
- TGI (MDA-N): 31.2 µM
- TGI (MOLT-4 leukemia): 32.3 µM
- TGI (NCI-H226 lung): 27.1 µM
- TGI (NCI-H23 lung): 31.6 µM
- TGI (NCI-H460 lung): 21.3 µM
- TGI (NCI-H522 lung): 22.9 µM
- TGI (NCI/ADR-RES ovarian): 27.3 µM
- TGI (OVCAR-3 ovarian): 27.8 µM
- TGI (OVCAR-4 ovarian): 34.4 µM
- TGI (OVCAR-5 ovarian): 26.8 µM
- TGI (OVCAR-8 ovarian): 25.8 µM
- TGI (PC-3 prostate): 28.9 µM
- TGI (RPMI-8226 leukemia): > 100 µM
- TGI (RXF 393 renal): 20.1 µM
- TGI (SF-268 CNS): 27.2 µM
- TGI (SF-295 CNS): 14.1 µM
- TGI (SF-539 CNS): 23.7 µM
- TGI (SK-MEL-2 melanoma): 31.3 µM
- TGI (SK-MEL-28 melanoma): 27.8 µM
- TGI (SK-MEL-5 melanoma): 28 µM
- TGI (SK-OV-3 ovarian): 28.1 µM
- TGI (SN12C renal): 30.1 µM
- TGI (SNB-19 CNS): 28.3 µM
- TGI (SNB-75 CNS): 23.1 µM
- TGI (SR leukemia): 44 µM
- TGI (SW-620 colon): 29.7 µM
- TGI (T-47D breast): 29.5 µM
- TGI (U251 CNS): 28.2 µM
- TGI (UACC-257 melanoma): 31.2 µM
- TGI (UACC-62 melanoma): 32.8 µM
- TGI (UO-31 renal): 32.6 µM

Structure (SMILES): Cn1c(-c2ccccc2)c2cc3nc4ccccc4nc3cc2c1-c1ccccc1
- TGI (A498 renal): 59.5 µM
- TGI (A549 NSCLC): > 100 µM
- TGI (ACHN renal): 83.3 µM
- TGI (BT-549 breast): 80.8 µM
- TGI (CAKI-1 renal): > 100 µM
- TGI (COLO 205 colon): 9.09 µM
- TGI (DU-145 prostate): > 100 µM
- TGI (EKVX NSCLC): > 100 µM
- TGI (HCT-116 colon): > 100 µM
- TGI (HCT-15 colon): 53.4 µM
- TGI (HL-60(TB) leukemia): 52.6 µM
- TGI (HOP-62 NSCLC): 35.9 µM
- TGI (HOP-92 NSCLC): 94.2 µM
- TGI (HS 578T breast): 45.9 µM
- TGI (HT29 colon): > 100 µM
- TGI (IGROV1 ovarian): > 100 µM
- TGI (K-562 leukemia): 82.6 µM
- TGI (KM12 colon): 72.1 µM
- TGI (LOX IMVI melanoma): 65 µM
- TGI (M14 melanoma): 31.3 µM
- TGI (MALME-3M melanoma): 78.7 µM
- TGI (MCF7 breast): 47.2 µM
- TGI (MDA-MB-231 breast): > 100 µM
- TGI (MDA-MB-435): 77.4 µM
- TGI (MDA-N): 38.9 µM
- TGI (MOLT-4 leukemia): 64.6 µM
- TGI (NCI-H23 lung): 44.1 µM
- TGI (NCI-H460 lung): 25.2 µM
- TGI (NCI-H522 lung): 40.3 µM
- TGI (NCI/ADR-RES ovarian): > 100 µM
- TGI (OVCAR-3 ovarian): > 100 µM
- TGI (OVCAR-4 ovarian): > 100 µM
- TGI (OVCAR-5 ovarian): > 100 µM
- TGI (OVCAR-8 ovarian): > 100 µM
- TGI (PC-3 prostate): 70.4 µM
- TGI (RPMI-8226 leukemia): 30.1 µM
- TGI (RXF 393 renal): 54.4 µM
- TGI (SF-268 CNS): 86.9 µM
- TGI (SF-295 CNS): 89.8 µM
- TGI (SF-539 CNS): 41.2 µM
- TGI (SK-MEL-2 melanoma): 60.3 µM
- TGI (SK-MEL-28 melanoma): > 100 µM
- TGI (SK-MEL-5 melanoma): 9.71 µM
- TGI (SK-OV-3 ovarian): 64.9 µM
- TGI (SN12C renal): 51.3 µM
- TGI (SNB-19 CNS): > 100 µM
- TGI (SNB-75 CNS): > 100 µM
- TGI (SR leukemia): 24.2 µM
- TGI (SW-620 colon): 92.5 µM
- TGI (T-47D breast): > 100 µM
- TGI (TK-10 renal): > 100 µM
- TGI (U251 CNS): > 100 µM
- TGI (UACC-257 melanoma): > 100 µM
- TGI (UACC-62 melanoma): 30.2 µM
- TGI (UO-31 renal): > 100 µM
